Data: the NIST ThermoML archive (doi:10.1016/j.tca.2009.07.006)
Numbers after ± are expanded uncertainties.

Columns and labels:
[1] = molar heat capacity at constant pressure; xn = mol fraction of the nth substance listed; details: 101 kPa, Liquid, Small sample (50 mg) DSC
[2] = xn = mol fraction of the nth substance listed; details: 101 kPa, Liquid

CCOS(=O)(=O)[O-].CCn1cc[n+](C)c1 [1-ethyl-3-methylimidazolium ethyl sulfate] + O
Details	electrical conductivity, x1 = 0.2 [S/m]	electrical conductivity, x1 = 0.4 [S/m]	electrical conductivity, x1 = 0.6 [S/m]	electrical conductivity, x1 = 0.8 [S/m]	molar heat capacity at constant pressure, x1 = 0.2 [J/K/mol]	molar heat capacity at constant pressure, x1 = 0.4 [J/K/mol]	molar heat capacity at constant pressure, x1 = 0.6 [J/K/mol]	molar heat capacity at constant pressure, x1 = 0.8 [J/K/mol]
[1], 303.2 K	–	–	–	–	146.4 ± 2.3	218.8 ± 4.5	290 ± 4.5	359.1 ± 6
[1], 308.2 K	–	–	–	–	147.5 ± 2.3	220.3 ± 3.5	291.4 ± 4.5	360.8 ± 6.1
[1], 313.2 K	–	–	–	–	148.7 ± 2.3	221.6 ± 3.7	292.8 ± 4.5	362.3 ± 5.6
[1], 318.2 K	–	–	–	–	149.5 ± 2.3	223.1 ± 3.5	294.4 ± 4.6	364 ± 5.6
[1], 323.2 K	–	–	–	–	150.8 ± 2.3	224.7 ± 3.5	295.9 ± 4.6	365.7 ± 5.7
[1], 328.2 K	–	–	–	–	151.9 ± 2.4	226.1 ± 3.5	297.5 ± 4.6	367.5 ± 5.7
[1], 333.2 K	–	–	–	–	153.2 ± 2.4	227.8 ± 3.5	298.9 ± 4.6	369.3 ± 5.7
[1], 338.2 K	–	–	–	–	154.7 ± 2.4	229.4 ± 3.6	300.6 ± 4.7	371.5 ± 5.8
[1], 343.2 K	–	–	–	–	155.9 ± 2.7	231 ± 3.6	302.2 ± 4.7	373.2 ± 5.8
[1], 348.2 K	–	–	–	–	157.2 ± 2.9	232.8 ± 3.6	304 ± 4.7	375.5 ± 5.8
[1], 353.2 K	–	–	–	–	158.4 ± 3.1	234.6 ± 3.6	305.8 ± 4.7	377.5 ± 5.9
[2], 293.2 K	2.17 ± 0.042	1.23 ± 0.036	0.74 ± 0.012	0.466 ± 0.014	–	–	–	–
[2], 298.2 K	2.53 ± 0.02	1.44 ± 0.008	0.881 ± 0.014	0.569 ± 0.01	–	–	–	–
[2], 303.2 K	2.95 ± 0.03	1.695 ± 0.004	1.05 ± 0.016	0.696 ± 0.008	–	–	–	–
[2], 308.2 K	3.387 ± 0.03	1.95 ± 0.001	1.25 ± 0.022	0.837 ± 0.01	–	–	–	–
[2], 313.2 K	3.85 ± 0.04	2.243 ± 0.012	1.45 ± 0.028	0.991 ± 0.01	–	–	–	–
[2], 318.2 K	4.34 ± 0.05	2.563 ± 0.012	1.67 ± 0.038	1.159 ± 0.01	–	–	–	–
[2], 323.2 K	4.86 ± 0.08	2.9 ± 0.02	1.91 ± 0.04	1.342 ± 0.012	–	–	–	–
[2], 328.2 K	5.4 ± 0.076	3.257 ± 0.012	2.15 ± 0.062	1.54 ± 0.012	–	–	–	–
[2], 333.2 K	5.93 ± 0.084	3.617 ± 0.024	2.41 ± 0.072	1.746 ± 0.012	–	–	–	–
[2], 338.2 K	6.5 ± 0.07	3.997 ± 0.012	2.69 ± 0.088	1.94 ± 0.001	–	–	–	–
[2], 343.2 K	7.07 ± 0.092	4.393 ± 0.012	2.99 ± 0.11	2.173 ± 0.012	–	–	–	–
[2], 348.2 K	7.64 ± 0.08	4.793 ± 0.012	3.28 ± 0.04	2.417 ± 0.012	–	–	–	–
[2], 353.2 K	8.24 ± 0.072	5.207 ± 0.03	3.62 ± 0.12	2.673 ± 0.024	–	–	–	–

CCn1cc[n+](C)c1.O=S(=O)([O-])C(F)(F)F [1-ethyl-3-methylimidazolium trifluoromethanesulfonate] + O
Details	electrical conductivity, [2] [S/m]	molar heat capacity at constant pressure, [1] [J/K/mol]
293.2 K, x1 = 0.2	3.437 ± 0.012	–
293.2 K, x1 = 0.4	2.35 ± 0.042	–
293.2 K, x1 = 0.6	1.64 ± 0.026	–
293.2 K, x1 = 0.8	1.17 ± 0.05	–
298.2 K, x1 = 0.2	3.927 ± 0.012	–
298.2 K, x1 = 0.4	2.67 ± 0.06	–
298.2 K, x1 = 0.6	1.86 ± 0.028	–
298.2 K, x1 = 0.8	1.34 ± 0.042	–
303.2 K, x1 = 0.1	–	102.6 ± 1.7
303.2 K, x1 = 0.2	4.47 ± 0.02	133.3 ± 2.1
303.2 K, x1 = 0.4	3.05 ± 0.07	197.5 ± 4.6
303.2 K, x1 = 0.6	2.12 ± 0.034	260.1 ± 4.2
303.2 K, x1 = 0.8	1.56 ± 0.054	320.1 ± 5
303.2 K, x1 = 0.9	–	351 ± 5.4
308.2 K, x1 = 0.1	–	103 ± 2
308.2 K, x1 = 0.2	5.037 ± 0.03	134.1 ± 2.1
308.2 K, x1 = 0.4	3.46 ± 0.06	198.7 ± 5.2
308.2 K, x1 = 0.6	2.42 ± 0.042	261.6 ± 4.1
308.2 K, x1 = 0.8	1.79 ± 0.06	321.9 ± 5
308.2 K, x1 = 0.9	–	352.7 ± 5.5
313.2 K, x1 = 0.1	–	103.4 ± 2
313.2 K, x1 = 0.2	5.613 ± 0.012	134.7 ± 2.1
313.2 K, x1 = 0.4	3.87 ± 0.07	199.9 ± 3.6
313.2 K, x1 = 0.6	2.73 ± 0.042	263.2 ± 4.8
313.2 K, x1 = 0.8	2.01 ± 0.05	323.7 ± 5
313.2 K, x1 = 0.9	–	354.8 ± 5.5
318.2 K, x1 = 0.1	–	103.8 ± 2
318.2 K, x1 = 0.2	6.213 ± 0.024	135.5 ± 2.1
318.2 K, x1 = 0.4	4.31 ± 0.06	201.3 ± 3.1
318.2 K, x1 = 0.6	3.047 ± 0.012	264.5 ± 4.1
318.2 K, x1 = 0.8	2.27 ± 0.07	325.4 ± 5
318.2 K, x1 = 0.9	–	356.7 ± 5.5
323.2 K, x1 = 0.1	–	104.3 ± 1.9
323.2 K, x1 = 0.2	6.837 ± 0.03	136.4 ± 2.2
323.2 K, x1 = 0.4	4.77 ± 0.06	202.4 ± 3.1
323.2 K, x1 = 0.6	3.393 ± 0.024	266 ± 4.1
323.2 K, x1 = 0.8	2.55 ± 0.072	327.3 ± 5.1
323.2 K, x1 = 0.9	–	358.4 ± 5.6
328.2 K, x1 = 0.1	–	105 ± 1.9
328.2 K, x1 = 0.2	7.47 ± 0.034	137.1 ± 2.3
328.2 K, x1 = 0.4	5.24 ± 0.07	203.8 ± 3.2
328.2 K, x1 = 0.6	3.757 ± 0.03	267.6 ± 4.4
328.2 K, x1 = 0.8	2.84 ± 0.09	329.1 ± 5.5
328.2 K, x1 = 0.9	–	360.2 ± 5.6
333.2 K, x1 = 0.1	–	105.5 ± 2
333.2 K, x1 = 0.2	8.113 ± 0.024	138 ± 2.4
333.2 K, x1 = 0.4	5.72 ± 0.09	205.2 ± 3.2
333.2 K, x1 = 0.6	4.127 ± 0.03	269.1 ± 4.2
333.2 K, x1 = 0.8	3.14 ± 0.092	331.1 ± 6.3
333.2 K, x1 = 0.9	–	362 ± 5.6
338.2 K, x1 = 0.1	–	106.1 ± 1.9
338.2 K, x1 = 0.2	8.76 ± 0.02	138.8 ± 2.4
338.2 K, x1 = 0.4	6.22 ± 0.084	206.4 ± 3.5
338.2 K, x1 = 0.6	4.513 ± 0.042	270.9 ± 4.2
338.2 K, x1 = 0.8	3.46 ± 0.092	332.7 ± 6.3
338.2 K, x1 = 0.9	–	364 ± 5.6
343.2 K, x1 = 0.1	–	106.4 ± 2.1
343.2 K, x1 = 0.2	9.413 ± 0.012	139.8 ± 2.4
343.2 K, x1 = 0.4	6.71 ± 0.08	207.7 ± 4.2
343.2 K, x1 = 0.6	4.903 ± 0.042	272.3 ± 4.2
343.2 K, x1 = 0.8	3.78 ± 0.1	334.6 ± 6.5
343.2 K, x1 = 0.9	–	365.9 ± 5.8
348.2 K, x1 = 0.1	–	107 ± 1.8
348.2 K, x1 = 0.2	10.05 ± 0.02	140.6 ± 2.4
348.2 K, x1 = 0.4	7.22 ± 0.088	208.9 ± 4.1
348.2 K, x1 = 0.6	5.307 ± 0.05	273.8 ± 4.9
348.2 K, x1 = 0.8	4.13 ± 0.13	336.4 ± 6.5
348.2 K, x1 = 0.9	–	368 ± 5.7
353.2 K, x1 = 0.1	–	107.5 ± 1.8
353.2 K, x1 = 0.2	10.71 ± 0.042	141.5 ± 2.7
353.2 K, x1 = 0.4	7.75 ± 0.09	210.1 ± 5.5
353.2 K, x1 = 0.6	5.743 ± 0.03	275.5 ± 4.3
353.2 K, x1 = 0.8	4.48 ± 0.09	338.2 ± 6.5
353.2 K, x1 = 0.9	–	369.8 ± 6.1
